Measurements from ChEMBL document CHEMBL1130322, “Anticancer and antiviral effects and inactivation of S-adenosyl-L-homocysteine hydrolase with 5'-carboxaldehydes and oximes synthesized from adenosine and sugar-modified analogues” (J Med Chem, 1997).
pKi: −log10 of the molar value. In brackets after ≈: the same amount, converted by molar mass.

How the values were obtained:
[1] = tested on: Vero; test: cells; settings: Chlorocebus sabaeus
[2] = tested on: Vero; test: cells; settings: Chlorocebus sabaeus; remark: listed apart in the source
[3] = tested on: Vero; test: cells; settings: Chlorocebus sabaeus; remark: listed apart in the source
[4] = tested on: MDCK; test: cells; settings: Canis lupus familiaris
[5] = tested on: L1210; test: cells; settings: Mus musculus
[6] = biological target: T1, Adenosylhomocysteinase (Homo sapiens, UniProt P23526)
Target sequence in this assay (P23526 whole entry): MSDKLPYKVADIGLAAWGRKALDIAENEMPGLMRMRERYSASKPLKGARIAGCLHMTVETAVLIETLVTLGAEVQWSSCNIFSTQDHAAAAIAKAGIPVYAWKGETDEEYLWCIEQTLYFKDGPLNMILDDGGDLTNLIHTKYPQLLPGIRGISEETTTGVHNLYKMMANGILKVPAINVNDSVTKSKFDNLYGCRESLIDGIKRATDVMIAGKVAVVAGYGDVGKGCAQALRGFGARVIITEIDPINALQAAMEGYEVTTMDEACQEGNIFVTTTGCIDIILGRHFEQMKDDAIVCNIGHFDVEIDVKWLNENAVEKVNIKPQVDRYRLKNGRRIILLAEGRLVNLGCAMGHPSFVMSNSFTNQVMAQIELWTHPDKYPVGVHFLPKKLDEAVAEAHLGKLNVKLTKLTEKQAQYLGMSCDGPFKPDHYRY

[7] = tested on: Vaccinia virus
[8] = tested on: Human alphaherpesvirus 1; test: microbe, parasite or virus in culture
[9] = tested on: CCRF-CEM; test: cells; settings: Homo sapiens
[10] = tested on: MOLT-4; test: cells; settings: Homo sapiens
[11] = tested on: Human betaherpesvirus 5; test: microbe, parasite or virus in culture
[12] = tested on: Vero; test: cells; settings: Chlorocebus sabaeus; remark: listed apart in the source
[13] = tested on: Human betaherpesvirus 5; test: microbe, parasite or virus in culture; remark: listed apart in the source
[14] = tested on: HeLa; test: Minimum inhibitory concentration required to effect a microscopically visible change of cell morphology in HeLa cell culture.; format: functional, Homo sapiens; design: unit not given here
[15] = tested on: Human alphaherpesvirus 2; test: microbe, parasite or virus in culture
[16] = tested on: HeLa; test: cells; settings: Homo sapiens
[17] = tested on: Vero; test: Minimum inhibitory concentration required to effect a microscopically visible change of cell morphology in Vero cell culture.; format: functional, Chlorocebus sabaeus; design: unit not given here
[18] = tested on: FM3A; test: cells; settings: Mus musculus
[19] = biological target: T1, Adenosylhomocysteinase; remark: listed apart in the source
Target sequence in this assay (P23526 2-432 limits assumed): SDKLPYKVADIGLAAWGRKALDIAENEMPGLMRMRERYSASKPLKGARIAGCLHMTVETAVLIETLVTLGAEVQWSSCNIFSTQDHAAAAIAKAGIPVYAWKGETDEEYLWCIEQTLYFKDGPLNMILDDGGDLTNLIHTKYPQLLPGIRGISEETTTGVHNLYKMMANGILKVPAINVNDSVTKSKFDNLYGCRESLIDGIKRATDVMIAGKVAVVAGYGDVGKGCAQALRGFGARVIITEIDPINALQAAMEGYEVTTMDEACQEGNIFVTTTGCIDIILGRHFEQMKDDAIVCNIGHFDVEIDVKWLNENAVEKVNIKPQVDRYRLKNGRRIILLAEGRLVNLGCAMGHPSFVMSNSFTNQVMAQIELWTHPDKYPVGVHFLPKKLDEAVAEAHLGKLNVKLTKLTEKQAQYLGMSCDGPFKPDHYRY

[20] = tested on: E6SM; test: Minimum inhibitory concentration required to effect a microscopically visible change of cell morphology in human embryonic skin-muscle (E6SM) cell culture.; format: functional; design: unit not given here
[21] = tested on: Human alphaherpesvirus 1; test: microbe, parasite or virus in culture; remark: listed apart in the source
[22] = tested on: Vero; test: cells; settings: Chlorocebus sabaeus; remark: listed apart in the source
[23] = tested on: HEL; test: (§1) 50% Cytostatic concentration required to inhibit human erythroleukemic (HEL) cell proliferation; format: functional
[24] = tested on: Respiratory syncytial virus; test: microbe, parasite or virus in culture; settings: human respiratory syncytial virus, HeLa
[25] = tested on: HeLa; test: cells; settings: Homo sapiens; remark: listed apart in the source
[26] = tested on: MDCK; test: cells; settings: Canis lupus familiaris; remark: listed apart in the source
[27] = tested on: Vero; test: cells; settings: Chlorocebus sabaeus; remark: listed apart in the source
[28] = tested on: Human alphaherpesvirus 1; test: microbe, parasite or virus in culture; remark: listed apart in the source
[29] = tested on: MDCK; format: functional, Canis lupus familiaris; design: unit not given here
[30] = tested on: HEL; test: as §1; format: functional; design: unit not given here
[31] = tested on: Human alphaherpesvirus 1; test: microbe, parasite or virus in culture; remark: listed apart in the source
[32] = tested on: Human alphaherpesvirus 1; test: microbe, parasite or virus in culture; remark: listed apart in the source
[33] = tested on: Human alphaherpesvirus 1; test: microbe, parasite or virus in culture; remark: listed apart in the source

Compound | EC50 [1] [µg/mL] | EC50 [2] [µg/mL] | EC50 [3] [µg/mL] | EC50 [4] [µg/mL] | IC50 [5] [µg/mL] | pKi [6] | EC50 [7] [µg/mL] | EC50 [8] [µg/mL] | IC50 [9] [µg/mL] | IC50 [10] [µg/mL] | EC50 [11] [µg/mL] | EC50 [12] [µg/mL] | EC50 [13] [µg/mL] | EC50 [15] [µg/mL] | IC50 [18] [µg/mL] | k2 [19] [min⁻¹] | MIC [20] | EC50 [21] [µg/mL] | EC50 [27] [µg/mL] | EC50 [28] [µg/mL] | other results
Nc1ncnc2c1ncn2[C@@H]1O[C@H](C=NO)[C@@H](O)[C@H]1O | > 1 | > 0.4 | > 1 | 0.8 (≈ 2.85 µM) | 1.8 (≈ 6.42 µM) | 6.17 | > 4 | > 4 | 2.9 (≈ 10.3 µM) | 5.4 (≈ 19.3 µM) | 0.3 (≈ 1.07 µM) | > 1 | 0.25 (≈ 0.892 µM) | > 4 | 2.3 (≈ 8.21 µM) | 0.16 | 7 | > 4 | > 0.4 | > 4 | MIC [14]: >4; EC50 [16]: > 40 µg/mL; MIC [17]: >1; EC50 [22]: > 0.4 µg/mL; CC50 [23]: 0.7; EC50 [24]: < 4 µg/mL; EC50 [25]: > 4 µg/mL; EC50 [26]: > 0.8 µg/mL; MIC [29]: 0.8
Nc1ncnc2c1ncn2[C@@H]1O[C@@H](C=O)[C@@H](O)[C@H]1O | – | – | – | – | – | 7.37 | – | – | – | – | – | – | – | – | – | 0.22 | – | – | – | – | –
Nc1ncnc2c1ncn2[C@@H]1O[C@H](C=O)[C@@H](O)[C@H]1O | > 200 | > 200 | 300 (≈ 1130 µM) | – | 9.71 (≈ 36.6 µM) | – | 70 (≈ 264 µM) | > 400 | 7.3 (≈ 27.5 µM) | 41.5 (≈ 156 µM) | > 40 | > 200 | > 40 | > 400 | 15 (≈ 56.6 µM) | – | >400 | > 400 | > 200 | > 400 | CC50 [30]: >50
Nc1ncnc2c1ncn2[C@@H]1O[C@@H](C=NO)[C@@H](O)[C@H]1O | – | – | – | – | – | 6.65 | – | – | – | – | – | – | – | – | – | 0.13 | – | – | – | – | –
Nc1ccnc2c1ncn2[C@@H]1O[C@H](CO)[C@@H](O)[C@H]1O | 4 (≈ 15 µM) | > 400 | 0.7 (≈ 2.63 µM) | – | – | – | 0.7 (≈ 2.63 µM) | > 400 | – | – | – | 0.2 (≈ 0.751 µM) | – | > 400 | – | – | >400 | > 400 | 4 (≈ 15 µM) | 40 (≈ 150 µM) | –
O=c1[nH]c(=O)n([C@H]2C[C@H](O)[C@@H](CO)O2)cc1/C=C/Br [BRIVUDINE] | > 400 | > 400 | > 400 | – | – | – | 0.7 (≈ 2.1 µM) | – | – | – | > 40 | > 400 | > 40 | – | – | – | >400 | 0.04 (≈ 0.12 µM) | > 400 | – | EC50 [31]: > 400 µg/mL; EC50 [32]: 10 µg/mL (≈ 30 µM); EC50 [33]: > 400 µg/mL; CC50 [30]: >40
CCO/N=C/[C@H]1OC(n2cnc3c(N)ncnc32)[C@H](O)[C@@H]1O (some centres undefined) | > 100 | > 100 | > 200 | 0.8 (≈ 2.59 µM) | 295 (≈ 957 µM) | 6.95 | 100 (≈ 324 µM) | > 200 | > 500 | > 500 | > 4 | > 100 | > 10 | > 200 | > 500 | 0.037 | >200 | > 200 | > 100 | > 200 | MIC [14]: >200; EC50 [16]: > 200 µg/mL; MIC [17]: >200; EC50 [22]: > 100 µg/mL; CC50 [23]: >50; EC50 [24]: > 200 µg/mL; EC50 [25]: > 200 µg/mL; EC50 [26]: 1.2 µg/mL (≈ 3.89 µM); MIC [29]: 4
CO/N=C/[C@H]1OC(n2cnc3c(N)ncnc32)[C@H](O)[C@@H]1O (some centres undefined) | > 100 | > 100 | 150 (≈ 510 µM) | 0.8 (≈ 2.72 µM) | 271 (≈ 921 µM) | 7.02 | 100 (≈ 340 µM) | – | 330 (≈ 1120 µM) | 218 (≈ 741 µM) | > 10 | > 100 | > 10 | > 200 | 19 (≈ 64.6 µM) | 0.048 | 400 | > 200 | > 100 | – | EC50 [31]: > 200 µg/mL; EC50 [32]: > 200 µg/mL; MIC [14]: >200; EC50 [16]: > 200 µg/mL; MIC [17]: >200; EC50 [22]: > 100 µg/mL; EC50 [24]: > 200 µg/mL; EC50 [25]: > 200 µg/mL; EC50 [26]: 4 µg/mL (≈ 13.6 µM); CC50 [30]: >50; MIC [29]: 20
